These results are taken from ChEMBL document CHEMBL6103667, “Novel Cyclic Peptides Inhibiting Tumor Necrosis Factor Receptor 1 Activity” (ACS Med Chem Lett, 2025).

Numbered stars: 1 amine (or outer) side, 2 acyl side, 3 side chain; on linkers, the order of the positions; unused ones are H or OH. Bridge positions count the residues as written; N and C are the ends. Square brackets hold non-standard residues; d marks the D form. Peptide text beside a SMILES is read from it. X1 = COc1cccc2c([C@H](C)[C@](C)(N[*:1])C(=O)[*:2])c[nH]c12; Morpholine(3S-CO,6,6-Me2) = CC1(C)CN[C@H](C(=O)O)CO1; Trp(7-Cl) = N[C@@H](Cc1c[nH]c2c(Cl)cccc12)C(=O)O; Phe(4-COOH) = N[C@@H](Cc1ccc(C(=O)O)cc1)C(=O)O; X2 = O=C([C@H]1CC[C@@H](N[*:1])C1)[*:2]; Pip(4-aza) = O=C(O)[C@@H]1CNCCN1; 4Pal = N[C@@H](Cc1ccncc1)C(=O)O; NMeE = CN[C@@H](CCC(=O)O)C(=O)O; X3 = CC[C@H](C(=O)[*:1])[*:2]; NEtAla = CCN[C@@H](C)C(=O)O; αMeS = C[C@](N)(CO)C(=O)O; Nle = CCCC[C@H](N)C(=O)O; Sar = CNCC(=O)O

Test [1] addresses T1, Tumor necrosis factor receptor superfamily member 1A (Homo sapiens, UniProt P19438).
T1 sequence (P19438 whole entry): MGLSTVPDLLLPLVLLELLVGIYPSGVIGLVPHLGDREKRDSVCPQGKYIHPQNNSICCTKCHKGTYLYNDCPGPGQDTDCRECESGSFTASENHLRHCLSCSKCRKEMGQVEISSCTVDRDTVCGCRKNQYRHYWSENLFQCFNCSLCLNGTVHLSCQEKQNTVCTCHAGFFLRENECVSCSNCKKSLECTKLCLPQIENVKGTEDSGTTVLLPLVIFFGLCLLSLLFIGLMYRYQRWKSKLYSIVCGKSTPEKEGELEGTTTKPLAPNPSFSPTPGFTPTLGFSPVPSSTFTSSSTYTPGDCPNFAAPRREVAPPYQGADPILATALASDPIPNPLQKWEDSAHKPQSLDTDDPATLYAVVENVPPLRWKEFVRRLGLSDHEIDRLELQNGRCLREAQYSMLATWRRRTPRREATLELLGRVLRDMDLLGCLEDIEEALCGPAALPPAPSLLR
Nature of the test: Displacement of biotinylated peptide from C-terminal 6His-tagged human soluble TNFR1 (1 to 211 residues) extracted from Sf21 baculovirus expression system incubated for 90 mins by LanthaScreen Eu based TR-FRET binding assay. Background: Time-resolved FRET reads energy transfer from a long-lived donor to a nearby acceptor.

For test [2], the target named is T1, Tumor necrosis factor receptor superfamily member 1A. Nature of the test: Binding affinity to C-terminal Avi-tagged human TNFRl extracted from Sf21 baculovirus expression system assessed as dissociation constant incubated for 20 hrs in presence of ATP by SPR analysis. (In general: SPR reads the build-up and loss of mass on a sensor chip optically.)
The target of test [3] is T2, Tumor necrosis factor receptor superfamily member 1B (Homo sapiens, UniProt P20333).
T2 sequence (P20333 whole entry): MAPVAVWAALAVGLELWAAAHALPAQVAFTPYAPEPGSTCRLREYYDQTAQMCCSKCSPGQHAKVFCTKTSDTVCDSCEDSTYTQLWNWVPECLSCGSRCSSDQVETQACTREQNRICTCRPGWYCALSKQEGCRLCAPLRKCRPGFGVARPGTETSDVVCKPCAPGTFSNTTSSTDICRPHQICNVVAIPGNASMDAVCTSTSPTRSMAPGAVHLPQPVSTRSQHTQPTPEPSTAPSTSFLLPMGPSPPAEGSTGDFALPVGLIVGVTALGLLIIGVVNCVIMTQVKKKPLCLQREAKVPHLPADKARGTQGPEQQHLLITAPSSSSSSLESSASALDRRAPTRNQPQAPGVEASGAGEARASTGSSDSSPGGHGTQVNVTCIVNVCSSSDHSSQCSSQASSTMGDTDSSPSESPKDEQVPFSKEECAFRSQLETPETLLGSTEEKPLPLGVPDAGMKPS
Nature of the test: Binding affinity to C-terminal Avi-tagged human TNFR2 extracted from Sf21 baculovirus expression system assessed as dissociation constant incubated for 20 hrs in presence of ATP by SPR analysis.

The nature of test [4]: Inhibition of TNFalpha-induced NF-kappaB signal transduction pathway in human THP-1 cells preincubated for 1 hrs followed by TNFalpha addition and measured after 16 to 18 hrs by luminescence based microplate reader. In kind it is cell-based.

Regarding `CCCC[C@@H]1NC(=O)[C@@H](CC)SC[C@@H](C(N)=O)NC(=O)[C@](C)([C@@H](C)c2c[nH]c3c(OC)cccc23)NC(=O)CN(C)C(=O)[C@H](Cc2ccc(O)cc2)NC(=O)[C@H](Cc2ccc(C(=O)O)cc2)NC(=O)[C@](C)(CO)NC(=O)[C@H](Cc2c[nH]c3c(Cl)cccc23)NC(=O)[C@H](Cc2ccncc2)NC(=O)[C@H](CC(N)=O)NC(=O)[C@H](CCC(=O)O)N(C)C(=O)[C@H](Cc2c[nH]c3ccccc23)NC(=O)[C@@H]2COC(C)(C)CN2C(=O)[C@H](Cc2ccncc2)NC1=O` ([Nle][4Pal][Morpholine(3S-CO,6,6-Me2)]W[NMeE]N[4Pal][Trp(7-Cl)][αMeS][Phe(4-COOH)]Y[Sar][X1]C-NH2; linker N-14 via X3), the IC50 (commonly the concentration that inhibits the measured activity by half) in test [1] stood at 0.55 nM; in test [4] it was 2.2 nM. For the same molecule, the Kd (commonly a measure of binding affinity in units of concentration) in test [2] is 0.2 nM; in test [3], over 1000 nM.
In the same order, the values of `CCCC[C@@H]1NC(=O)[C@H]2CC[C@H](C2)NC(=O)[C@](C)([C@@H](C)c2c[nH]c3c(OC)cccc23)NC(=O)CN(C)C(=O)[C@H](Cc2ccc(O)cc2)NC(=O)[C@H](Cc2ccc(C(=O)O)cc2)NC(=O)[C@](C)(CO)NC(=O)[C@H](Cc2c[nH]c3c(Cl)cccc23)NC(=O)[C@H](Cc2ccncc2)NC(=O)[C@H](CC(=O)O)NC(=O)[C@H](CCC(=O)O)N(C)C(=O)[C@H](Cc2c[nH]c3ccccc23)NC(=O)[C@@H]2CNCCN2C(=O)[C@H](Cc2ccncc2)NC1=O` (cyclo([4Pal][Trp(7-Cl)][αMeS][Phe(4-COOH)]Y[Sar][X1][X2][Nle][4Pal][Pip(4-aza)]W[NMeE]D)) are 0.2 nM, 1.2 nM, 0.1 nM and over 1000 nM.
For `CCCC[C@@H]1NC(=O)CSC[C@@H](C(N)=O)NC(=O)[C@](C)([C@@H](C)c2c[nH]c3c(OC)cccc23)NC(=O)CN(C)C(=O)[C@H](Cc2ccc(O)cc2)NC(=O)[C@H](Cc2ccc(C(=O)O)cc2)NC(=O)[C@](C)(CO)NC(=O)[C@H](Cc2c[nH]c3c(Cl)cccc23)NC(=O)[C@H](Cc2ccncc2)NC(=O)[C@H](CC(N)=O)NC(=O)[C@H](C)N(CC)C(=O)[C@H](Cc2c[nH]c3ccccc23)NC(=O)[C@@H]2COC(C)(C)CN2C(=O)[C@H](Cc2ccncc2)NC1=O` ({CH2CO}-[Nle][4Pal][Morpholine(3S-CO,6,6-Me2)]W[NEtAla]N[4Pal][Trp(7-Cl)][αMeS][Phe(4-COOH)]Y[Sar][X1]C-NH2; thioether N-14), the values for the IC50 in test [1] and in test [4] were 0.6 nM and 0.8 nM, respectively. The Kd in test [2] is 0.14 nM; in test [3], over 1000 nM.
